Laboratory results: patent US20260365684A1, “PHYTOSPHINGOSINE-3,4-CYCLICPHOSPHATE COMPOUND AND PHARMACEUTICAL COMPOSITION COMPRISING THE SAME” (AXCESO BIOPHARMA CO., LTD., priority 2022, published 2026)

Test system: APP/PS/Tau transgenic mice
Assay: Intestinal length in an AD-induced animal model (APP/PS/Tau transgenic mice)
Assay type: in vivo, mouse
Conditions: 1 mg/kg i.p. once every 3 days for 2 weeks, FIG. 2
Protocol: In neurodegenerative diseases (AD and PD), the length of the intestine tends to decrease as the disease progresses, so we looked for changes in intestinal length in an AD-induced animal model.
APP/PS/Tau transgenic mice were used as an AD-induced animal model. The compound of formula (1a-1) was administered intraperitoneally once every 3 days at a concentration of 1 mg/kg to 12-week-old transgenic mice for 2 weeks, and the changes in intestinal length of the mice were measured after 1 and 4 weeks.

SMILES: CCCCCCCCCCCCCC[C@H]1OP(=O)(O)O[C@H]1[C@@H](N)CO.Cl [formula (1a-1), (4S,5R)-4-((S)-1-amino-2-hydroxyethyl)-2-hydroxy-5-tetradecyl-1,3,2-dioxaphosphoran-2-oxide hydrochloride]
- intestinal length at 4 weeks (6W) vs 1 week (3W) after administration: the length of the intestine at 4 weeks is longer compared to the length of the intestine at 1 week
- intestinal length vs control group (untreated AD-induced mice as control): the intestinal length is increased
